In patent publication US8178579B2, “Dioxanes and uses thereof” (President and Fellows of Harvard College, priority 2001, dated 2012):
“Also recorded” adds a separate entry of the source. Non-standard residues stand in square brackets, D forms with d. Residues, ends and D or L forms follow the SMILES beside them. Aoe = N[C@@H](CCCCCC(=O)[C@@H]1CO1)C(=O)O

Assays:
HDAC6F = biological target: T1, HDAC6F (Homo sapiens, UniProt Q9UBN7); test: in vitro tubulin deacetylase (TDAC) assay, immunoprecipitated wild-type HDAC6F, MAP-stabilized tubulin; assay type: biochemical; settings: TSA 300 nM or 1 μM, tubacin, niltubacin, trapoxin B 1 μM
T1 construct: made in house; host or cells: TAg Jurkat cells, transient transfection, anti-FLAG M2 immunoprecipitation
T1 sequence (Q9UBN7 1-1215): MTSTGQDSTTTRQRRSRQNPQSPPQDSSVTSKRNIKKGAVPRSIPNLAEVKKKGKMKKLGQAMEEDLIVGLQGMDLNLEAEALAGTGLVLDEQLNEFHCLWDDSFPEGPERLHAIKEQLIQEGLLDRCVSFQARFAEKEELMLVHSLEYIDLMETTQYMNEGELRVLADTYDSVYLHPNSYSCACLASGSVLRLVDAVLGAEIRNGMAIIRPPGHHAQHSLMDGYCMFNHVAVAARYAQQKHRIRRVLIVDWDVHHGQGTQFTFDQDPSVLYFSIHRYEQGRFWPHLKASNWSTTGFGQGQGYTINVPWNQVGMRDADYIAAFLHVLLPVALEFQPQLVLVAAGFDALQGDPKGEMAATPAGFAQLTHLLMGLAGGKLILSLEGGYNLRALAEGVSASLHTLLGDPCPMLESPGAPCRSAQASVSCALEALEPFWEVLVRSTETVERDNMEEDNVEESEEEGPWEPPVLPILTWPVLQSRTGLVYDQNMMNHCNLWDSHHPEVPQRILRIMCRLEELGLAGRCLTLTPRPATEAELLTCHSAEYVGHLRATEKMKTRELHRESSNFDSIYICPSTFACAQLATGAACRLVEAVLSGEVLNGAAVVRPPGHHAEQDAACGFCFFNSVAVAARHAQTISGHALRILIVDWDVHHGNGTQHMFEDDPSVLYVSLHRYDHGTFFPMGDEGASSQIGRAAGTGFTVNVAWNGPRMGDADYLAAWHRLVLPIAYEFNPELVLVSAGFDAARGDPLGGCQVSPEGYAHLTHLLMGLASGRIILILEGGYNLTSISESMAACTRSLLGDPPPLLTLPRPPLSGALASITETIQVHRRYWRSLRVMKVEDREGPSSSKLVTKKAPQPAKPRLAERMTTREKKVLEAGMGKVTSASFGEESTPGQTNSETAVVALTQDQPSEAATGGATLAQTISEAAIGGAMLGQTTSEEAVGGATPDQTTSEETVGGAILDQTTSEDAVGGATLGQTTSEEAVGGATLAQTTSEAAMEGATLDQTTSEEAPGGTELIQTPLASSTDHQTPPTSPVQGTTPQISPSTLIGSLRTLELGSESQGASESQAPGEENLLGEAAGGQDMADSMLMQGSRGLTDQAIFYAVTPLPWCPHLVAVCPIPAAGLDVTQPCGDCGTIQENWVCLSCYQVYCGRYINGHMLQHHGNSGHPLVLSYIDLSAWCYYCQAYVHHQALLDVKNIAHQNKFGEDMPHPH
Description: Tubulin and MAPs were isolated from bovine brain as described [See http://mitchison.med.harvard.edu/protocols/tubprep.html]. Whole brain and fractions from phosphocellulose chromatography were blotted for HDAC6 and acetylated α-tubulin. Cultured hippocampal neurons from dissociated 1-day old rat brains were transfected with an enhanced green fluorescent protein (EGFP)-actin construct at 4-5 days using the calcium phosphate method [E. N. Star, D. J. Kwiatkowski and V. N. Murthy, Nat. Neurosci. […] K. Miranti and M. E. Greenberg, J. Neurosci. […] Transfected cultures were allowed to grow for at least 48 h before the addition of experimental compounds.
[^3H]Acetate-incorporated histones were isolated from butyrate-treated HeLa cells as described [J. Taunton, C. […] Immunoprecipitates were incubated with acetylated histones and HDAC activity determined by scintillation counting as described [J. Taunton, C. […] TDAC assays were performed with immunoprecipitates using MAP-stabilized microtubules polymerized from MAP-rich tubulin fraction as described [C. […] Reactions were incubated (2 h) at 37° C., then incubated on ice (15 min).

histone deacetylation = test: acetylated lysine / acetylated histone in cells (AcLysine cytoblot, immunofluorescence, Western blot); assay type: cell-based, human; settings: A549 (also BS-C-1) cells, tubacin, niltubacin 2 μM, histacin 20 μM, library ~2-5 μM, 18 h
Description: (§1) A549 cells were seeded at a density of 4,000 cells/50 μl in DMEM+ in white tissue culture-treated 384-well plates (Nalge Nunc) using a Multidrop 384 liquid dispenser (Labsystems). Library small molecules were pinned twice (100-150 nl/pin) from ˜1 mM stock solutions (DMSO) and incubated for 18 hours. For the ITSA1+AcTubulin assay, ITSA1 (50 μM) was added four hours after pin-transfer of library molecules. Media was aspirated with a 16-channel wand. For the acetylated α-tubulin cytoblot (AcTubulin), 40 μl/well of fixation solution (3.7% formaldehyde (1:10 from 37% stock) in Tris-buffered saline (TBS, 0.15 M NaCl, 0.02 M Tris-Cl, pH 7.4) was added and plates incubated for twenty minutes at room temperature. After aspiration, 30 μl 100% methanol (−20° C.) was added and incubated for five minutes at room temperature. After aspirating and washing three times with 90 μl of antibody dilution buffer (ADB, TBS/2% bovine serum albumin, 0.1% TritonX-100) the wells were blocked for twenty minutes in ADB. After aspirating, 20 μl/well of ADB containing anti-acetylated α-tubulin antibody (mouse; 1:1000) and anti-mouse IgG horseradish peroxidase (HRP)-conjugated antibody (1:750) was added and incubated overnight (4° C.). For the anti-acetyl lysine cytoblot (AcLysine), 40 μl/well of fixation solution (95% ethanol/5% acetic acid, −20° C.) was added and plates incubated for five minutes at room temperature. Wells were aspirated, washed, and blocked in ADB as for the AcTubulin protocol. After aspirating, 20 μl/well of ADB containing anti-acetylated lysine (rabbit; 1:375) and anti-rabbit IgG-HRP conjugated antibody (1:750) was added and incubated overnight (4° C.). For the anti-acetylated histone H3 (AcHistH3) and anti-acetylated histone H4 (AcHistH4) cytoblots, cells were fixed, washed, and blocked in ADB as for the AcLysine cytoblot. After aspirating, 20 μl/well of ADB containing anti-acetylated histone H3 antibody (rabbit, 1:500) or anti-acetylated histone H4 antibody (rabbit, 1:500) was added and incubated for two hours at room temperature. Wells were aspirated and washed twice with 80 μl of ADB. After aspirating, 20 μl/well of ADB containing anti-rabbit IgG-HRP conjugated antibody (1:1000) was added and incubated for two hours (room temperature). For the AcTubulin and AcLysine assays, plates were washed three times with TBS before adding 20 μl/well of enhanced chemiluminescent (ECL) mixture. For the AcHistH3 and AcHistH4 assays, plates were washed three times with 80 μl TBS with 1% Triton X-100 and once with 80 μl TBS before adding 20 μl/well of ECL mixture. Plates were read on an Analyst plate reader (LJL Biosystems) with an integration time of 0.1 seconds.
(§2) 1,3-dioxanes from single polystyrene macrobeads were prepared as 1-2 mM stock solutions in DMSO as described [Hubbert, C., Guardiola, A., Shao, R., Kawaguchi, Y., Ito, A., Nixon, A., Yoshida, M., Wang, X. F., and Yao, T. P. (2002). HDAC6 is a microtubule-associated deacetylase. Nature 417, 455-458]. Bead decoding and structure determination were as described [See for example, Hubbert, C., Guardiola, A., Shao, R., Kawaguchi, Y., Ito, A., Nixon, A., Yoshida, M., Wang, X. F., and Yao, T. P. (2002). HDAC6 is a microtubule-associated deacetylase. Nature 417, 455-458; and Piperno, G., LeDizet, M., and Chang, X. J. (1987). Microtubules containing acetylated alpha-tubulin in mammalian cells in culture. J. Cell Biol. 104, 289-302]. Small molecules (˜2-5 μM) of interest were retested using a sample from the plate of stock solutions by fluorescence microscopy and comparison to the effects of trichostatin (300 nM to 1 μM).
(§3) A549 cells were seeded at a density of 50,000/200 μl in DMEM+ on the surface of glass coverslips on top of Parafilm in a 10 cm dish and allowed to attach overnight. For detection of acetylated α-tubulin, cells were permeabilized and fixed with 100 mM K-PIPES, pH 6.8, 10 mM EGTA, 1 mM MgCl2, 0.2% triton X-100, 0.2% glutaraldehyde for fifteen minutes. […]

α-tubulin deacetylation = test: acetylated α-tubulin in cells (AcTubulin cytoblot, immunofluorescence, Western blot); assay type: cell-based, human; settings: for effect on tubulin deacetylation / α-tubulin acetylation in cells: A549 (also BS-C-1) cells, tubacin/JCWII114, niltubacin/JCWII153 2 μM, TSA 100 nM-4 μM, library ~2-5 μM, 18 h
Description: as §1, §2, §3

A549 cells = test: mitotic abnormalities by immunofluorescence; assay type: cell-based, human; settings: 18 h or 24 h treatment, TSA 10 μM in FIG. 42C
Description: Detection of acetylated α-tubulin and acetylated histones by immunofluorescence was performed as described in Example 6 above. For determining microtubule stability, A549 cells were treated as indicated, fixed in glutaraldehyde, and stained for acetylated α-tubulin and total α-tubulin in antibody dilution buffer (ADB, Tris-buffered saline (TBS), 0.15 M NaCl, 0.02 M Tris-Cl, pH 7.4, with 2% bovine serum albumin and 0.1% Triton-X 100). For cold-depolymerization, cells were incubated at 4° C. or 37° C. for an additional 90 minutes before fixation. For calcium depolymerization, cells were incubated at 37° C. for 10 minutes in a microtubule-stabilizing buffer (0.2% NP-40, 5 mM MgCl2, 2 mM EGTA, 2 M glycerol, 100 mM PIPES, pH 6.8) with and without the addition of CaCl2 (2 mM) before glutaraldehyde fixation. For co-localization experiments, biotubacin (50 μM) treated A549 cells were fixed in 3.7% formaldehyde in TBS and processed as for detecting acetylated α-tubulin (See Example 6 above) with biotubacin detected using streptavidin-TR (1:500). HDAC6 was detected using a rabbit polyclonal antibody (1:250-1:750; C.M.G., unpublished data) under the conditions used to detect acetylated α-tubulin (See Example 6 above). Filamentous actin in HT-1080 cells was detected using TR-conjugated phalloidin (1 μg/mL), and depolymerized actin using FITC-conjugated deoxyribonuclease (10 μg/mL), following fixation in 3.7% formaldehyde in TBS. p58 (1:100) in NIH-3T3 cells was detected after fixation in 3.7% formaldehyde in TBS. Images for these experiments were collected on a Zeiss LSM510 confocal scanning laser microscope at the appropriate wavelengths using the accompanying software and processed with Adobe Photoshop. Deconvoluted serial images of TSA and DMSO treated A549 cells were obtained by taking sections (8μ) on a Zeiss Axioskop 2 microscope using an AxioCam camera and the accompanying software. Rat hippocampal neuronal cultures were fixed at room temperature for 15 min in phosphate-buffered saline (PBS) containing 4% paraformaldehyde. […]

[1] = listed as carboxylic acid analogue of JCWII114

With `O=C(O)CCCCCCC(=O)Nc1ccc([C@@H]2OC(c3ccc(CO)cc3)C[C@H](CSc3nc(-c4ccccc4)c(-c4ccccc4)o3)O2)cc1` (stereo partly shown) [JCWII153] the “inhibition of TDAC activity of wild-type HDAC6F” value (“inhibition” for short) (HDAC6F) was “did not; also recorded: not inhibited by the addition of niltubacin or trapoxin”, the “effect on histone deacetylation / lysine or histone acetylation in cells” value (histone deacetylation) was “inactivity; also recorded: had no effect on α-tubulin or histone acetylation” and the “effect on histone deacetylation / lysine or histone acetylation in cells” value (histone deacetylation; [1]) was “did not affect histone or tubulin deacetylation”. For the same compound, the “effect on tubulin deacetylation / α-tubulin acetylation in cells” value (α-tubulin deacetylation) was “inactivity; also recorded: had no effect on α-tubulin or histone acetylation” and the “effect on tubulin deacetylation / α-tubulin acetylation in cells” value (α-tubulin deacetylation; [1]) was “did not affect histone or tubulin deacetylation”.
In the case of `O=C(CCCCCCC(=O)Nc1ccc(C2OC(CSc3nc(-c4ccccc4)c(-c4ccccc4)o3)CC(c3ccc(CO)cc3)O2)cc1)NO` (stereo not shown) [JCWII169], the “potency of inducing α-tubulin acetylation relative to tubacin” value (α-tubulin deacetylation; AcTubulin cytoblot (enantiotubacin), cells (biotubacin)) is reported as “equally as potent as tubacin”, the “selectivity as TDAC inhibitor relative to tubacin (fold less selective)” value (α-tubulin deacetylation; after re-synthesis and retesting, unpublished data) is reported as roughly 5 fold and the “potency and selectivity of the enantiomers JCWII114 and JCWII169 compared” value (α-tubulin deacetylation; immunofluorescence and Western blot, A549 cells, 5 h or 18 h) is reported as “No significant difference in selectivity or potency”.
With `O=C1N[C@@H](Cc2ccccc2)C(=O)N2CCC[C@@H]2C(=O)N[C@@H](CCCCCC(=O)[C@@H]2CO2)C(=O)N[C@H]1Cc1ccccc1` [trapoxin, trapoxin B, reference compound] (cyclo(FF[dP][Aoe])) the “inhibition” value (HDAC6F) was “not inhibited by the addition of niltubacin or trapoxin”, the “inhibition” value (HDAC6F; listed as trapoxin B) was “did not” and the “effect on tubulin deacetylation / α-tubulin acetylation in cells” value (α-tubulin deacetylation) was “have no effect upon α-tubulin acetylation levels”.
In the case of `C[C@@H]1NC(=O)[C@H]2CCCN2C(=O)[C@H](CCCCCC(=O)[C@@H]2CO2)NC(=O)[C@@H](C)NC1=O` [HC toxin, reference compound], the mitotic abnormalities (A549 cells) is reported as “caused a significant number of abnormal mitotic cells” and the “effect on tubulin deacetylation / α-tubulin acetylation in cells” value (α-tubulin deacetylation) is reported as “have no effect upon α-tubulin acetylation levels; also recorded: no effect on tubulin acetylation”.
